Results as given in patent US20240091365A1, “BETA-GLUCURONIDE LINKER-PAYLOADS, PROTEIN CONJUGATES THEREOF, AND METHODS THEREOF” (priority 2022, published 2024).
Where two headings read alike, the source gives them in different places.

Legend:
E. coli β-Glucuronidase = E. coli β-Glucuronidase (Escherichia coli, UniProt P05804); assay: β-Glucuronidase reactivity: enzymatic cleavage of linker-payloads monitored by LCMS; assay type: in vitro ADME; conditions: 10 μM linker-payload, 300 U/mL enzyme, 50 mM sodium acetate, 37° C., release of (207) from (107), (201) from (108)
Chain of E. coli β-Glucuronidase (P05804 whole entry): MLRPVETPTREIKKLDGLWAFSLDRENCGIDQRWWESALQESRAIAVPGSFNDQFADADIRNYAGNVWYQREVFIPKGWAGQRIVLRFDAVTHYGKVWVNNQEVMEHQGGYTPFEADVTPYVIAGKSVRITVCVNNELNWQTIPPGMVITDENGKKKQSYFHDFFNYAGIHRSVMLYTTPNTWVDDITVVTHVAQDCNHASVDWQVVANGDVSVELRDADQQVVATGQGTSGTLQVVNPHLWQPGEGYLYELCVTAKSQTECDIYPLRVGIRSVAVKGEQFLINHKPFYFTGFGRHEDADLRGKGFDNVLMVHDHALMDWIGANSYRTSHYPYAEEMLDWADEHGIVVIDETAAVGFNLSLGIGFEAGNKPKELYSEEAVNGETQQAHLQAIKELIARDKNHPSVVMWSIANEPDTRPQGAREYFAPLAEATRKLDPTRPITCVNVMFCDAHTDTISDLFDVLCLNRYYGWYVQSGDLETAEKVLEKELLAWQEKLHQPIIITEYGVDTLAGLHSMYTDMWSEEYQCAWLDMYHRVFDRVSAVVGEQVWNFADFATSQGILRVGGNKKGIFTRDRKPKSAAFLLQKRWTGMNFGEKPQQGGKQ
Method: The susceptibility of the β-glucuronide linker-payloads to enzymatic cleavage was evaluated by treatment of the (107) and (108) linker-payloads with β-glucuronidase, as shown in FIG. 3A-FIG. 3D. This assay allowed the confirmation of the expected release of Exatecan (207) and 3-amino hemiasterlin (201). The cleavage product was monitored using LCMS. 945 μL of 50 mM sodium acetate, 5 μL of 2 mM (107)/(108) linker-payloads stock (final conc.10 μM) and 50 μL of 6 KU/mL E. coli β-Glucuronidase in 0.2% NaCl (final conc.300 U/mL) were mixed and incubated at 37° C. Aliquots (50 μL) were taken at t=0 h, 0.5 h, 1 h, 2 h, 4 h and 24 h, treated with 3 volumes of quench solution (methanol:acetonitrile 5:95 v/v) and analyzed by LCMS.

MC38-hFolRα cells = assay: In vitro cell killing (cell proliferation assay, Cell Titer-Glo) on MC38-hFolRα cells; assay type: cell-based; conditions: for cell killing (in words): MC38-hFolRα cells (FolRα positive)
From the text: (§1) Anti-FolRα antibody conjugated to hemiasterlin with a cathepsin cleavable ValCit linker was used as control. FolRα negative A549 and MC38 cells were purchased from ATCC (American Type Culture Collection, Manassas, VA, USA), and FolRα positive Igrov1 cells were licensed from NCI (National Cancer Institute at Frederick, Maryland). MC38-hFolRα cells were generated at Sutro by stable transfection of a vector expressing human FolRa. All the cell lines were maintained in DMEM:F12 (1:1), high glucose (Corning, Corning, NY) supplemented with 10% heat-inactivated fetal bovine serum (Thermo Scientific, Grand Island, NY), 2 mM glutamax (Thermo Scientific, Grand Island, NY), and 1× Penicillin/Streptomycin (Corning, Corning, NY). Cytotoxicity effects of the ADCs were measured with a cell proliferation assay. A total of 625 cells for Igrov1 and A549, and 312 cells for MC38-hFolRα in a volume of 25 microliters were seeded in a 384-well flat bottom white polystyrene plate the day before the actual assay starts. ADCs were formulated at 2× starting concentration in cell culture medium and filtered through MultiScreen HTS 96-Well Filter Plates (Millipore, Billerica, Massachusetts). Filter sterilized samples were serial diluted (1:3) under sterile conditions and added onto cells in triplicate. Plates were cultured at 37° C. in a CO2 incubator for 120 hours for Igrov1 and A549, and 72 hours for MC38-hFolRα cells. For cell viability measurement, 30 microliters of Cell Titer-Glo® reagent (Promega Corp, Madison, WI) was added into each well, and plates were processed as per product instructions. Relative luminescence was measured on an ENVISION® plate reader (Perkin-Elmer; Waltham, MA). Relative luminescence readings were converted to % viability using untreated cells as controls. Data was fitted with non-linear regression analysis using log (inhibitor) vs. response, variable slope, and 4-parameter fit equation using GraphPad Prism.

A549 cells = assay: In vitro cell killing (cell proliferation assay, Cell Titer-Glo) on FolRα negative A549 cells; assay type: cell-based; conditions: for cell killing (in words): A549 cells (hFolRα negative)
From the text: as §1

Igrov1 cells = assay: In vitro cell killing (cell proliferation assay, Cell Titer-Glo) on FolRα positive Igrov1 cells; assay type: cell-based; conditions: for cell killing (in words): Igrov1 cells (FolRα positive)
From the text: as §1

For `CN[C@H](C(=O)N[C@H](C(=O)N(C)[C@H](/C=C(\C)C(=O)O)C(C)C)C(C)(C)C)C(C)(C)c1cccc(NC(=O)OCc2ccc(O[C@@H]3O[C@H](C(=O)O)[C@@H](O)[C@H](O)[C@H]3O)c(CNC(=O)CCNC(=O)[C@H](CNC(=O)CCOCCOCCOCCOCCOCCOCCOCCOCCOCCOCCOCCOC)NC(=O)CCCCC(=O)N3Cc4ccccc4C#Cc4ccccc43)c2)c1` [Compound 108], the “linker-payload after 30 min with β-glucuronidase (in words)” value (E. coli β-Glucuronidase) was “most of the (107) and (108) in the reaction mixture had disappeared”.
With `CC[C@@]1(O)C(=O)OCc2c1cc1n(c2=O)Cc2c-1nc1cc(F)c(C)c3c1c2[C@@H](N)CC3` [Compound 207, Exatecan] the EC50 (MC38-hFolRα cells; 72 h) was 2.3 nM, the Span (MC38-hFolRα cells; MC38-FolRa cells, 72 hours) was 95% and the “cell killing (in words)” value (MC38-hFolRα cells) was “good cell killing”. The “cell killing (in words)” value (A549 cells) was “good cell killing”, the Span (A549 cells; A549 cells, 120 hours) was 99% and the EC50 (A549 cells; Homo sapiens, A549, 120 h) was 3.4 nM. For the same molecule, the EC50 (Igrov1 cells; Homo sapiens, IGROV-1, 120 h) was 0.27 nM, the “cell killing (in words)” value (Igrov1 cells) was “good cell killing” and the Span (Igrov1 cells; Igrov1 cells, 120 hours) was 91%. The “potency relative to free Hemiasterlin (201)” value (Igrov1 cells; free payloads, statement for the three cell lines tested (Igrov1, MC38-hFolRα, A549)) was “about 3 fold”.
With `CC[C@@]1(O)C(=O)OCc2c1cc1n(c2=O)Cc2c-1nc1cc(F)c(C)c3c1c2[C@@H](NC(=O)OCc1ccc(O[C@@H]2O[C@H](C(=O)O)[C@@H](O)[C@H](O)[C@H]2O)c(CNC(=O)CCNC(=O)[C@H](CNC(=O)CCOCCOCCOCCOCCOCCOCCOCCOCCOCCOCCOCCOC)NC(=O)CCCCC(=O)N2Cc4ccccc4C#Cc4ccccc42)c1)CC3` [Compound 107, DBCO β-Glucuronide-PEG12-Exatecan] the “linker-payload after 30 min with β-glucuronidase (in words)” value (E. coli β-Glucuronidase) was “most of the (107) and (108) in the reaction mixture had disappeared”.
With 3-amino hemiasterlin [Compound 201] the Span (MC38-hFolRα cells; MC38-FolRa cells, 72 hours) was 82%, the EC50 (MC38-hFolRα cells; MC38-FolRa cells, 72 hours, read-out: EC50) was 5.5 nM and the “cell killing (in words)” value (MC38-hFolRα cells) was “good cell killing”. The “cell killing (in words)” value (A549 cells) was “good cell killing”, the Span (A549 cells; A549 cells, 120 hours) was 83% and the EC50 (A549 cells; A549 cells, 120 hours, read-out: EC50) was 13 nM. For the same molecule, the “cell killing (in words)” value (Igrov1 cells) was “good cell killing”, the Span (Igrov1 cells; Igrov1 cells, 120 hours) was 88% and the EC50 (Igrov1 cells; Igrov1 cells, 120 hours, read-out: EC50) was 0.96 nM.
